Reference: patent US11643429B2, “Compounds and methods for the treatment of ocular disorders” (Azura Ophthalmics Ltd., priority 2019, dated 2023)

How the values were obtained:
[1] = Rabbit Cornea Homogenate Stability Assay (Rabbit Cornea Esterase Assay); format: in vitro ADME; conditions: New Zealand White, 37° C., half-life of parent conjugate
Description: Determining Rabbit Cornea Homogenate stability of the test compounds was performed using HPLC-MS. The assay was performed at two concentrations of Rabbit Cornea Homogenate (0.15 mg/ml and 0.45 mg/ml total protein) so that any hydrolysis observed could be assigned as esterase dependent or not.
Five rabbit corneas (e.g. New Zealand Whites) of approx. 50 mg each were sliced and scraped with a scalpel and tweezers until reduced to small (1-3 mm), thin pieces. These were transferred into a tared vial and accurately weighed, then diluted with 10 volumes aqueous PBS pH7.4
Sample was cooled intermittently on ice and shear homogenized for 3 minutes, then centrifuged for 3 min at 3000 rpm. The supernatant was pipetted off into a vial, and total protein concentration determined at 280 nm. Sample was stored at −78° C.
10 mM Compound stocks were diluted to 100 μM in a 96 deep-well plate: 10 μl of 10 mM Compound stock was added to 990 μl 50 mM HEPES, pH7.5 buffer.
Compounds were further diluted to 10 μM: 100 μl of 100 μM compound was added to 900 μl 50 mM HEPES, pH7.5 buffer.
Esterase homogenate was diluted to 300 ng/μl and 900 ng/μl
A heater shaker was set to 37° C. Into a suitable 96 well plate (Run Plate), 75 μl of 300 or 900 ng/μl esterase homogenate was pipetted into each of the required wells (2 min, 5 min, 10 min, 20 min and 45 min). The plate was sealed and then warmed at 37° C. for 5 min. Another 96 well PCR plate was put on ice (Kill Plate). To this was added 100 μl of MeCN to each well, labelled 0 min 2 min, 5 min, 10 min, 20 min and 45 min. The plate was covered to minimise evaporation. For the T=0 sample only, to the 100 μl cold MeCN stop solution was added 50 μl of 300 or 900 ng/μl esterase homogenate followed by 50 μl of 10 μM compound solution For the remaining timepoints, 75 μl of 10 μM compound solution was added to the Run Plate starting from T=45 min row and ending with T=2 min row. At the appropriate time point, 100 μl of the assay mixture was added to the matching kill plate well containing 100 μl of cold MeCN. Samples were analysed as soon as practicable by LCMS (Waters Xevo TQ-S or Micromass Ultima). Parent conjugate and parent concentrations were determined against appropriate standard response curves and the half-life (T1/2) of the parent conjugate was calculated using the peak area of the parent conjugate at each time point in the linear region of the log-linear plot.

[2] = Aqueous Hydrolysis Stability Assay; format: physicochemical; conditions: New Zealand White, rabbit, rabbit cornea homogenate (esterase assay) in HEPES buffer, pH 7.5; ND, estimated from esterase assay; read-out: T1/2 Aq Stability
[3] = Aqueous Hydrolysis Stability Assay; format: physicochemical; conditions: 50 mM HEPES buffer pH 7.5; HEPES pH 7.5, room temperature; read-out: T1/2 Aq Stability
Description: Determination of aqueous stability of the test compounds was performed using HIPLC-MS. A test compound 10 mM stock solution was prepared in DMSO. 10 μl of the DMSO stock solution was dissolved in 990 μl of 50 mM HEPES pH 7.5 buffer or 1:1 (v/v) of Acetonitrile:Water to make a 100 μM solution. Final DMSO concentration was 1%. The solution was kept at room temperature and injected without delay into the LCMS (Waters Xevo TQ-S or Micromass Ultima). Additional injections were performed at appropriate time points. Half-life (T1/2) of the parent conjugate was calculated using the peak area of the parent conjugate at each time point in the linear region of the log-linear plot.

[4] = pH 7.5, Rabbit Cornea Homogenate 0.15 mg/ml total protein, read-out: T1/2 Esterase (min) (0.15 mg/ml Homogenate)
[5] = pH 7.5, Rabbit Cornea Homogenate 0.45 mg/ml total protein, read-out: T1/2 Esterase (min) (0.45 mg/ml Homogenate)

SMILES	half-life at 5 µM [1, 4]	half-life at 5 µM [1, 5]	half-life at 5 µM [2]	half-life at 100 µM [3]
CC[C@H]1OC(=O)[C@H](C)[C@@H](O[C@H]2C[C@@](C)(OC)[C@@H](O)[C@H](C)O2)[C@H](C)[C@@H](O[C@@H]2O[C@H](C)C[C@H](N(C)C)[C@H]2OC(=O)O[C@H](C)C(=O)OC)[C@](C)(O)C[C@@H](C)CN(C)[C@H](C)[C@@H](O)[C@]1(C)O [Compound 10, Methyl (R)-2-(((((2S,3R,4S,6R)-4-(dimethylamino)-2-(((2R,3S,4R,5R,8R,10R,11R,12S,13S,14R)-2-ethyl-3,4,10-trihydroxy-13-(((2R,4R,5S,6S)-5-hydroxy-4-methoxy-4,6-dimethyltetrahydro-2H-pyran-2-yl)oxy)-3,5,6,8,10,12,14-heptamethyl-15-oxo-1-oxa-6-azacyclopentadecan-11-yl)oxy)-6-methyltetrahydro-2H-pyran-3-yl)oxy)carbonyl)oxy)propanoate]	53 min	49 min	~0.85 h	
CC[C@H]1OC(=O)[C@H](C)[C@@H](O[C@H]2C[C@@](C)(OC)[C@@H](O)[C@H](C)O2)[C@H](C)[C@@H](O[C@@H]2O[C@H](C)C[C@H](N(C)C)[C@H]2O)[C@](C)(O)C[C@@H](C)CN(C)[C@H](C)[C@@H](OC(=O)CO)[C@]1(C)O [Compound 11, (2R,3R,4R,5R,8R,10R,11R,12S,13S,14R)-11-(((2S,3R,4S,6R)-4-(Dimethylamino)-3-hydroxy-6-methyltetrahydro-2H-pyran-2-yl)oxy)-2-ethyl-3,10-dihydroxy-3-(((2R,4R,5S,6S)-5-hydroxy-4-methoxy-4,6-dimethyltetrahydro-2H-pyran-2-yl)oxy)-3,5,6,8,10,12,14-heptamethyl-15-oxo-1-oxa-6-azacyclopentadecan-4-yl 2-hydroxyacetate]	> 120 min	> 120 min		> 2 h
CC[C@H]1OC(=O)[C@H](C)[C@@H](O[C@H]2C[C@@](C)(OC)[C@@H](O)[C@H](C)O2)[C@H](C)[C@@H](O[C@@H]2O[C@H](C)C[C@H](N(C)C)[C@H]2O)[C@](C)(O)C[C@@H](C)CN(C)[C@H](C)[C@@H](OC(C)=O)[C@]1(C)O [Compound 12, (2R,3R,4R,5R,8R,10R,11R,12S,13S,14R)-11-(((2S,3R,4S,6R)-4-(Dimethylamino)-3-hydroxy-6-methyltetrahydro-2H-pyran-2-yl)oxy)-2-ethyl-3,10-dihydroxy-13-(((2R,4R,5S,6S)-5-hydroxy-4-methoxy-4,6-dimethyltetrahydro-2H-pyran-2-yl)oxy)-3,5,6,8,10,12,14-heptamethyl-15-oxo-1-oxa-6-azacyclopentadecan-4-yl acetate]	> 120 min	> 120 min		> 2 h

More lines, now with the values ahead:

half-life at 5 µM [1, 4]	half-life at 5 µM [1, 5]	half-life at 5 µM [2]	half-life at 100 µM [3]	SMILES
> 120 min	> 120 min		> 2 h	CC[C@H]1OC(=O)[C@H](C)[C@@H](O[C@H]2C[C@@](C)(OC)[C@@H](OC(C)=O)[C@H](C)O2)[C@H](C)[C@@H](O[C@@H]2O[C@H](C)C[C@H](N(C)C)[C@H]2O)[C@](C)(O)C[C@@H](C)CN(C)[C@H](C)[C@@H](O)[C@]1(C)O [Compound 13, (2S,3S,4R,6R)-6-(((2R,3S,4R,5R,8R,10R,11R,12S,13S,14R)-11-(((2S,3R,4S,6R)-4-(Dimethylamino)-3-hydroxy-6-methyltetrahydro-2H-pyran-2-yl)oxy)-2-ethyl-3,4,10-trihydroxy-3,5,6,8,10,12,14-heptamethyl-15-oxo-1-oxa-6-azacyclopentadecan-13-yl)oxy)-4-methoxy-2,4-dimethyltetrahydro-2H-pyran-3-yl acetate]
> 120 min	> 120 min		> 2 h	CC[C@H]1OC(=O)[C@H](C)[C@@H](O[C@H]2C[C@@](C)(OC)[C@@H](O)[C@H](C)O2)[C@H](C)[C@@H](O[C@@H]2O[C@H](C)C[C@H](N(C)C)[C@H]2OC(=O)SC[C@H](NC(C)=O)C(=O)OC)[C@](C)(O)C[C@@H](C)CN(C)[C@H](C)[C@@H](O)[C@]1(C)O [Compound 14, Methyl N-acetyl-S-((((2S,3R,4S,6R)-4-(dimethylamino)-2-(((2R,3S,4R,5R,8R,10R,11R,12S,13S,14R)-2-ethyl-3,4,10-trihydroxy-13-(((2R,4R,5S,6S)-5-hydroxy-4-methoxy-4,6-dimethyltetrahydro-2H-pyran-2-yl)oxy)-3,5,6,8,10,12,14-heptamethyl-15-oxo-1-oxa-6-azacyclopentadecan-11-yl)oxy)-6-methyltetrahydro-2H-pyran-3-yl)oxy)carbonyl)-L-cysteinate]
